Measurements from patent publication US9790496B2, “Microrna compounds and methods for modulating MIR-21 activity” (Regulus Therapeutics, Inc., priority 2011, dated 2017).
Where “and” joins values, the source holds several entries; their conditions need not be identical. Identical values can stand only once. Strand notation (5' to 3'): a small letter for the sugar, then the base; units joined by * are phosphorothioate-linked, units joined directly phosphodiester-linked; [ ] holds rarer units or linkages, { } end groups; capitals alone tell only the bases. e = 2'-O-(2-methoxyethyl) (MOE); f = 2'-fluoro

Legend:
[1] = test system: ischemia reperfusion injury/nephrectomy (IR/Nx) model; assay: Ischemia reperfusion injury/nephrectomy (IR/Nx) model: urinary albumin to creatinine ratio; format: in vivo, mouse; conditions: s.c. 20 mg/kg on days 2, 3, 4, 8, urine day 9, PBS control 127, nephrectomy-only 16
Excerpt: An ischemia reperfusion injury/nephrectomy (IR/Nx) model is created in the mouse through temporary unilateral clamping of an artery in one kidney, which leads to tubule damage, inflammation, and fibrosis, followed by removal of the second kidney at a later timepoint. In this model, the acute kidney dysfunction phase is useful to test candidate agents for the treatment of acute kidney injury (i.e. up to about the first 5 days), and the later phases of kidney dysfunction are useful to model chronic fibrosis (i.e. after about the first 5 days).
Anti-miR-21 compounds were tested in the IR/Nx model. 25109, a 6-base mismatch to miR-21, was used as a control compound ([…]; where nucleosides not followed by a subscript indicate β-deoxynucleosides; nucleosides followed by a subscript “E” indicate 2′-MOE nucleosides; nucleosides followed by a subscript “S” indicate S-cEt nucleosides; and all internucleoside linkages are phosphorothioate internucleoside linkages).
Unilateral IR was induced for a period of 30 minutes. Treatment groups were as follows: sham IR procedure; IR with PBS administered subcutaneously; IR with mismatched control 25109 administered subcutaneously at a dose of 20 mg/kg; IR with anti-miR-21 compound 25070 administered subcutaneously at a dose of 20 mg/kg; and IR with anti-miR-21 compound 25923 administered subcutaneously at a dose of 20 mg/kg. PBS or anti-miR was administered on days 2, 3, 4, and 8 following IR. On day 8, the healthy kidney was removed by nephrectomy from each animal, and animals were sacrificed on day 9. Just prior to sacrifice, urine was collected by direct bladder puncture.
Urinary albumin to creatinine ratio was measured in the urine from each mouse. […] The geometric mean of the albumin to creatinine ratio in each group of mice was 16 μgAlb/mgCr (nephrectomy-only control), 127 μgAlb/mgCr (IR/Nx, PBS control), 140 μgAlb/mgCr (IR/Nx, 25109 control), 40 μgAlb/mgCr (IR/Nx, 25070), and 31 μgAlb/mgCr (IR/Nx, 25923). Blood urea nitrogen and serum creatinine levels were similar across all IR/Nx mice, and were elevated relative to nephrectomy-only control mice (data not shown).

[2] = Ex vivo liver homogenate stability assay (HPLC-TOF MS)
miR-21 = miR-21 luciferase sensor assay in Hela cells; format: cell-based; conditions: Hela cells
Procedure: The compounds were assessed for miR-21 inhibitory activity in a luciferase assay. A microRNA luciferase sensor construct was engineered using pGL3-MCS2 (Promega). The construct was introduced into Hela cells to test the ability of anti-miR compounds to inhibit activity of miR-21. In this assay, miR-21 present in the Hela cells binds to its cognate site(s) in the luciferase sensor construct, and suppresses luciferase expression. When the appropriate anti-miR is introduced into the cells, it binds to miR-21 and relieves suppression of luciferase expression. Thus, in this assay anti-miRs that are effective inhibitors of miR-21 expression will cause an increase in luciferase expression.
Day 1: Hela cells (ATCC), stably transfected with a luciferase construct engineered to contain a sequence complementary of miR-21, were seeded in T-170 flasks (BD Falcon) at 3.5*10^6 cells/flask. Hela cells were grown in Dulbecco's Modified Eagle Medium with High Glucose (Invitrogen).
Day 2: Each flask of Hela cells was transfected with 0.5 ug of a phRL sensor plasmid (Promega) expressing Renilla to be used in normalization. Hela cells were transfected using 20 ul Lipofectamine 2000/flask (Invitrogen). After 4 hours of transfection, cells were washed with PBS and trypsinized. Hela cells were plated at 40 k/well in 24 well plates (BD Falcon) and left overnight.
Day 3: Hela cells were transfected with anti-miRs using Lipofectin (Invitrogen) at 2.5 ul Lipofectin/100 nM ASO/ml Opti-MEM I Reduced Serum Medium (Invitrogen) for 4 hours. After ASO transfection, Hela cells were refed with Dulbecco's Modified Eagle Medium with High Glucose (Invitrogen).
Day 4: Hela cells are passively lysed and luciferase activity measured using the Dual-Luciferase Reporter Assay System (Promega).
The luciferase assay was performed to test the ability of anti-miRs with the nucleoside patterns described herein to inhibit the activity of miR-21. Results were compared to a ‘mock’ treatment, in which cells received no anti-miR treatment. The experiment was repeated and results of two experimental replicates are shown in the following Table B, as the luciferase value normalized to beta-galactosidase activity.
The luciferase assay was performed as described herein to test the ability of anti-miRs in Table F to inhibit the activity of miR-21. Results were compared to a ‘mock’ treatment, in which cells received no anti-miR treatment. The experiment was repeated and results of two experimental replicates are shown in the following Table D, as fold change in luciferase value relative to the mock treatment.

[3] = test system: collagen 1A1 and collagen 3A1 expression in kidney, unilateral ureteral obstruction (UUO) model; assay: UUO model of kidney fibrosis: kidney collagen 1A1 and collagen 3A1 expression by real-time PCR; format: in vivo, mice; conditions: UUO, 20 mg/kg at days -3, -1, +5 (prophylactic); kidney at day 11; real-time PCR normalized to GAPDH then sham; 20 mg/kg
Procedure: Unilateral ureteral obstruction (UUO) is a well-established experimental model of renal injury leading to interstitial fibrosis, and thus is used as an experimental model that is reflective of human kidney disease. UUO is induced by surgically ligating a single ureter. As fibrosis is characterized by an increase in collagen, the presence and extent of kidney fibrosis may be determined by measuring collagen content. Both collagen 1A1 (Col 1A1) and collagen 3A1 (Col 3A1) are measured to assess collagen content. Kidney fibrosis may be visualized by staining tissue samples with picro-sirius red to detect increases in collagen content. Kidney fibrosis may also be observed by measuring the amount of hydroxyproline, which is a major component of collagen, in a sample.
The cEt-containing anti-miR-21 compounds found to be active in the luciferase assay were tested in the UUO model of kidney fibrosis. 25919 comprising 2′-MOE and 2′-fluoro modifications is known to inhibit miR-21 activity in vivo and was included as a positive control. Groups of 8 animals each were treated as follows: UUO only, UUO with PBS, or UUO with anti-miR-21 compound. Relative to the day of the UUO procedure, PBS or anti-miR-21 compound was administered at days −3, −1, and +5. Anti-miR-21 compounds were administered at a dose of 20 mg/kg. As the anti-miR compounds were administered prior to the UUO procedure, this dosing regimen is considered a prophylactic treatment. At day 11, animals were sacrificed and kidney was isolated for measurement of collagen expression. Collagen expression was measured by real-time PCR and normalized first to GAPDH and then to the sham control animals. […]

[4] = test system: collagen 1A1 and collagen 3A1 expression in kidney, ischemia reperfusion injury (IRI) model; assay: Unilateral ischemia reperfusion injury (IRI) model: kidney collagen 1A1 and collagen 3A1 expression; format: in vivo, mouse; conditions: unilateral IRI
Procedure: (§1) A model of ischemia reperfusion injury (IRI) is created in the mouse through unilateral or bilateral clamping of kidney arteries, which leads to tubule damage, inflammation, and fibrosis. Kidney dysfunction can occur either early (<5 days) or late (>7 days) in this model, with the early time points useful to test candidate agents for the treatment of acute kidney injury, and the later time points useful to model chronic fibrosis.
(§2) Anti-miR-21 compounds were tested in the unilateral IRI model. Unilateral IRI was induced for a period of 30 minutes. Treatment groups were as follows: sham IRI procedure; IRI with PBS administered subcutaneously; IRI with anti-miR-21 compound 25070 administered intraperitoneally at a dose of 20 mg/kg; the 2′-fluoro/2′-MOE modified anti-miR-21 25919 administered intraperitoneally at a dose of 20 mg/kg; and a 2′-fluoro/2′ modified mismatch anti-miR-21 (having three mismatches to the sequence of miR-21) 25319 administered intraperitoneally at a dose of 20 mg/kg. PBS or anti-miR compound was administered on days 5, 6, and 7 following IRI, and animals were sacrificed 14 days after IRI. As anti-miR compound is administered 5 days following the injury to the kidney, or later, when fibrosis has already occurred to some extent, this treatment regimen is considered a therapeutic regimen, rather than a prophylactic regimen.
(§3) Kidney tissue was collected for analysis of collagen 1A1 and collagen 3A1 expression (shown in Table O), and collagen area fraction (shown in Table P).
(§4) A similar study was performed with the same treatment groups and additional days of treatment. In this study, treatments were administered intraperitoneally at days 5, 6, 7, 14, and 21 following the IRI procedure Animals were sacrificed on Day 27, and kidney tissue was collected for analysis of collagen 1A1 and collagen 3A1 expression, as well as collagen area fraction.
In order to assess the flexibility of administration of the anti-miR-21 compound 25070, the activity of the compound in the 14 day study above, where anti-miR-21 was administered at […] following the IRI procedure, to a different 14 day study where anti-miR-21 was administered intraperitoneally at days 3, 5, and 7 following the IRI procedure.

[5] = test system: ischemia reperfusion injury (IRI) model; assay: Unilateral IRI model: collagen area fraction of kidney tissue; format: in vivo, mouse
Procedure: as §1, §2, §3, §4

[6] = 5 μM in liver homogenate (50 mg tissue per ml), 24 hours at 37° C.
[7] = 4 nM oligonucleotide, mock transfection 50
[8] = .16 nM oligonucleotide, mock transfection 45
[9] = .8 nM oligonucleotide, mock transfection 33
[10] = 20 mg/kg intraperitoneally on days 5, 6, 7, sacrifice 14 days after IRI, 20 mg/kg
[11] = 20 mg/kg intraperitoneally on days 5, 6, 7, sacrifice 14 days after IRI, group mean
[12] = intraperitoneally on days 5, 6, 7, 14, 21, sacrifice Day 27

## AEASATCSTGTCSTCAUSAATASAAE [Compound 25109, reference compound]
[1]
  geometric mean of the urinary albumin to creatinine ratio: 140 μgAlb/mgCr

## AECSATCSAGTCSTGAUSAAGCSTAS (ACATCAGTCTGATAAGCTA; 2'-MOE and cEt modifications) [Compound 25923]
[2]; [6]
  compound lacking the 3'-terminal nucleoside: about 18%
  compound present as the full-length compound: About 68%
[2]; 5 μM oligonucleotide in liver homogenate (50 mg tissue per ml), 24 hours, 37° C., decrease of full-length compound
  ex vivo (liver) N %↓: 17%
[2]; 5 μM oligonucleotide in liver homogenate, 24 hours, 37° C., compound lacking one terminal nucleoside
  ex vivo (liver) % N-1: 13%
[2]; 5 μM oligonucleotide in liver homogenate, 24 hours, 37° C., endonuclease products
  ex vivo (liver) % Endo: 2-3%

## TE^MeCEAEAECSAETECSAEGETECSTEGEAEUSAEAEGECSTEAE (TCAACATCAGTCTGATAAGCTA; listed as DNA, chemistry not fully specified) [Compound 25068]
miR-21; [7]
  luciferase value normalized to beta-galactosidase activity: 64
miR-21; 20 nM oligonucleotide, mock transfection 47
  luciferase value normalized to beta-galactosidase activity: 86
miR-21; 100 nM oligonucleotide, mock transfection 40
  luciferase value normalized to beta-galactosidase activity: 97
miR-21; [8]
  luciferase value normalized to beta-galactosidase activity: 45
miR-21; [9]
  luciferase value normalized to beta-galactosidase activity: 54
miR-21
  inhibition of miR-21 in the luciferase assay (in words): demonstrated inhibition of miR-21 in a dose-dependent manner
[3]
  Collagen 1A1 (Normalized Expression), individual animal: 84.7 and 75.1 and 85.5 and 89.1 and 90.4 and 125.8 and 124.4
  Collagen 3A1 (Normalized Expression), individual animal: 64.8 and 56.2 and 47.4 and 76.2 and 57.0 and 63.0 and 59.6

## UECEAFAFCFAFUFCFAFGFUFCEUEGEAFUFAFAFGFCFUEAE (eU*eC*fA*fA*fC*fA*fU*fC*fA*fG*fU*eC*eU*eG*fA*fU*fA*fA*fG*fC*eU*eA) [Compound 25919, positive control, reference compound]
[4]; [10]
  Collagen 1A1 (Normalized Expression), individual animal: 108.7 and 103.9 and 29.5 and 95.8 and 35.5 and 42.2 and 64.1 and 96.4
  Collagen 3A1 (Normalized Expression), individual animal: 87.5 and 72.3 and 14.3 and 104 .4 and 27.1 and 34.9 and 56.1 and 82.8
[4]; [11]
  Collagen 1A1 (Normalized Expression), Mean: 72.0
[4]; [12]
  Collagen 1A1 (Normalized Expression), individual animal: 75.5 and 50.4 and 49.2 and 43.2 and 41.7 and 53.6 and 44.8 and 28.0
  Collagen 3A1 (Normalized Expression), individual animal: 40.2 and 43.1 and 34.5 and 35.7 and 41.1 and 36.9 and 24.5 and 22.9
miR-21; [7]
  luciferase value normalized to beta-galactosidase activity: 84
miR-21; [8]
  luciferase value normalized to beta-galactosidase activity: 40
miR-21; [9]
  luciferase value normalized to beta-galactosidase activity: 53
[5]; [10]
  Collagen Area Fraction (#), individual animal: 7.093 and 8.254 and 8.095 and 8.559 and 8.681 and 6.31 and 8.416 and 9.905
[5]; [11]
  Collagen Area Fraction (#), Mean: 8.2
[5]; [12]
  Collagen Area Fraction (#), individual animal: 11.882 and 9.755 and 9.506 and 12.654 and 20.319 and 11.551 and 12.224 and 14.468
[3]
  Collagen 1A1 (Normalized Expression), individual animal: 150.2 and 54.2 and 84.6 and 67.7 and 78.7 and 62.2 and 89.2 and 106.2
  Collagen 3A1 (Normalized Expression), individual animal: 67.1 and 33.9 and 87.6 and 47.3 and 67.7 and 46.7 and 47.0 and 57.8
